In US7605154B2, “Substituted Thiazolo [4,5-d]pyrimidines as protein kinase inhibitors” (Janssen Pharmaceutica N.V., priority 2005, dated 2009):

Target: T1, EGFR (Homo sapiens, UniProt P00533)
T1 construct: started at nucleotide 2189 (corresponding to amino acid 667) and ended at the termination codon; made in house; host or cells: Sf9 insect cells (baculovirus)
Test: EGFR Kinase Assay
Format: biochemical
Conditions: GST-EGFR, 5 μM ATP
Text: The portion was PCR amplified with primers that added the lambda attB sequences to each end, recombined into an entry vector, then into a, GST destination vector (as described in Gateway Technologies Manual by Invitrogen Corporation, Carlsbad, Calif.).
The destination vector was recombined in the DH10BAC strain of bacteria to produce a bacmid. The bacmid was transfected into Sf 9 cells and the supernatant containing the baculovirus was collected. The GSTEGFR protein was purified using large cultures of Sf 9 cells infected with stock virus. After an appropriate period of time, the cells were collected and lysed. The GSTEGFR was then purified from the lysate on Glutathione-Sepharose columns (as described by Amersham Biosciences, Buckinghamshire, United Kingdom).
The free biotin was separated from the biotinylated polyGluTyr on a gel filtration column.
A mixture of a 10× kinase buffer (500 mM Tris at pH 8.0, 100 mM Magnesium Chloride and 1 mM Sodium Vanadate), DTT (1 mM final from 500 mM stock), ATP (5 μM final from 10 mM stock), biotinylated polyGluTyr (10 μg/μL stock), γ-^33P ATP (10 μCi/μL stock) and water was added to each well (90 μL/well) of a Streptavidin Flashplate (Perkin Elmer, Wellesley, Mass.).
Test compound in 100% DMSO (2 μL) was added to the appropriate wells. Diluted GSTEGFR (1:300 dilution in 50 mM Tris at pH 8.0 and 0.1% bovine serum albumin) (10 μL) was added to the wells to initiate the reactions.
The plates were incubated at 30° C. for 1 hr with shaking. The reacted contents were removed and the plates were sequentially washed three times with a 1×PBS stop buffer (300 μL without Magnesium and Calcium) and 100 mM EDTA. After the final wash, the same stop buffer (200 μL) was added to the wells. The plates were then sealed and read on the TopCount scintillation counter.
Test compounds were assayed in triplicate at 16 concentrations at half-log dilutions starting at 200 uM. A maximum and minimum signal for the assay was determined on each plate. The percent inhibition of a test compound was calculated according to the formula
For a series of test concentrations, the IC50 was derived by graphing percent inhibition against the log of the concentrations tested for a given compound.

T1 sequence (P00533 667-1210 limits assumed): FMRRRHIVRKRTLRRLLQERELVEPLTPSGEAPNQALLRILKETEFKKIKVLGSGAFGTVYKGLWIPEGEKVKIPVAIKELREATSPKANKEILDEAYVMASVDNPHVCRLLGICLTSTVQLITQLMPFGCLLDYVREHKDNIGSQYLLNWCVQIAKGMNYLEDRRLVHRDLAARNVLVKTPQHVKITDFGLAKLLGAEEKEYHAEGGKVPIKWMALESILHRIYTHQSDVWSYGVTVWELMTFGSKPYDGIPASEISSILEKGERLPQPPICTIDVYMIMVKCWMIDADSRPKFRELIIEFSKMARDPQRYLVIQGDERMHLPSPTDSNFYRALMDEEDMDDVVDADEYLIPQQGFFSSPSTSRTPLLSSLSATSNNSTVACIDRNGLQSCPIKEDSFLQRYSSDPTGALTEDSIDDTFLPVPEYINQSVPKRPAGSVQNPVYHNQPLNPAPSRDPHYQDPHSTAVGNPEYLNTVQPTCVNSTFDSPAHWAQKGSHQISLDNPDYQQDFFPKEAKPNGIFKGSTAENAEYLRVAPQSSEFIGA

Row | Compound | IC50 [nM]
1 | C#Cc1cccc(Nc2ncnc3nc(Nc4ccc(CN(CCOC)CCOC)cc4)sc23)c1 [Cpd 38, N^2-(4-{[bis-(2-methoxy-ethyl)-amino]-methyl}-phenyl)-N^7-(3-ethynyl-phenyl)-thiazolo[4,5-d]pyrimidine-2,7-diamine] | 28.5
2 | O=S(=O)(NCCO)c1ccc(Nc2nc3ncnc(Nc4ccc(F)c(Cl)c4)c3s2)cc1 [Cpd 39, 4-[7-(3-chloro-4-fluoro-phenylamino)-thiazolo[4,5-d]pyrimidin-2-ylamino]-N-(2-hydroxy-ethyl)-benzenesulfonamide] | 2.5
3 | O=S(=O)(NCCN1CCOCC1)c1ccc(Nc2nc3ncnc(Nc4ccc(F)c(Cl)c4)c3s2)cc1 [Cpd 40, 4-[7-(3-chloro-4-fluoro-phenylamino)-thiazolo[4,5-d]pyrimidin-2-ylamino]-N-(2-morpholin-4-yl-ethyl)-benzenesulfonamide] | 9
4 | O=S(=O)(NCCCN1CCOCC1)c1ccc(Nc2nc3ncnc(Nc4ccc(F)c(Cl)c4)c3s2)cc1 [Cpd 41, 4-[7-(3-chloro-4-fluoro-phenylamino)-thiazolo[4,5-d]pyrimidin-2-ylamino]-N-(3-morpholin-4-yl-propyl)-benzenesulfonamide] | 10
5 | C#Cc1cccc(Nc2ncnc3nc(Nc4ccc(CN5CCCC5)cc4)sc23)c1 [Cpd 42, N^7-(3-ethynyl-phenyl)-N^2-(4-pyrrolidin-1-ylmethyl-phenyl)-thiazolo[4,5-d]pyrimidine-2,7-diamine] | 5.42
6 | C#Cc1cccc(Nc2ncnc3nc(Nc4ccc(CN5CCCCC5)cc4)sc23)c1 [Cpd 43, N^7-(3-ethynyl-phenyl)-N^2-(4-piperidin-1-ylmethyl-phenyl)-thiazolo[4,5-d]pyrimidine-2,7-diamine] | 7.8
7 | C#Cc1cccc(Nc2ncnc3nc(Nc4ccc(CN5CCC[C@H]5CO)cc4)sc23)c1 [Cpd 44, (2S)-(1-{4-[7-(3-ethynyl-phenylamino)-thiazolo[4,5-d]pyrimidin-2-ylamino]-benzyl}-pyrrolidin-2-yl)-methanol] | 10
8 | C#Cc1cccc(Nc2ncnc3nc(Nc4ccc(S(=O)(=O)N5CCOCC5)cc4)sc23)c1 [Cpd 45, N^7-(3-ethynyl-phenyl)-N^2-[4-(morpholine-4-sulfonyl)-phenyl]-thiazolo[4,5-d]pyrimidine-2,7-diamine] | 22.5
9 | O=S(=O)(c1ccc(Nc2nc3ncnc(Nc4ccc(F)c(Cl)c4)c3s2)cc1)N1CCOCC1 [Cpd 46, N^7-(3-chloro-4-fluoro-phenyl)-N^2-[4-(morpholine-4-sulfonyl)-phenyl]-thiazolo[4,5-d]pyrimidine-2,7-diamine] | 15.5
10 | C#Cc1cccc(Nc2ncnc3nc(Nc4ccc(CN5CCN(C)CC5)cc4)sc23)c1 [Cpd 47, N^7-(3-ethynyl-phenyl)-N^2-[4-(4-methyl-piperazin-1-ylmethyl)-phenyl]-thiazolo[4,5-d]pyrimidine-2,7-diamine] | 18.2
11 | C#Cc1cccc(Nc2ncnc3nc(Nc4ccc(Cn5ccnc5CC)cc4)sc23)c1 [Cpd 48, N^2-[4-(2-ethyl-imidazol-1-ylmethyl)-phenyl]-N^7-(3-ethynyl-phenyl)-thiazolo[4,5-d]pyrimidine-2,7-diamine] | 9
12 | C#Cc1cccc(Nc2ncnc3nc(Nc4ccc(CN(C)C)cc4)sc23)c1 [Cpd 49, N^2-(4-dimethylaminomethyl-phenyl)-N^7-(3-ethynyl-phenyl)-thiazolo[4,5-d]pyriridine-2,7-diamine] | 11.8
13 | C#Cc1cccc(Nc2ncnc3nc(Nc4ccc(CCN5CCOCC5)cc4)sc23)c1 [Cpd 50, N^7-(3-ethynyl-phenyl)-N^2-[4-(2-morpholin-4-yl-ethyl)-phenyl]-thiazolo[4,5-d]pyrimidine-2,7-diamine] | 13
14 | Fc1ccc(Nc2ncnc3nc(NCCN4CCOCC4)sc23)cc1Cl [Cpd 51, N^7-(3-chloro-4-fluoro-phenyl)-N^2-(2-morpholin-4-yl-ethyl)-thiazolo[4,5-d]pyrimidine-2,7-diamine] | 918
15 | Fc1ccc(Nc2ncnc3nc(NCCCN4CCOCC4)sc23)cc1Cl [Cpd 52, N^7-(3-chloro-4-fluoro-phenyl)-N^2-(3-morpholin-4-yl-propyl)-thiazolo[4,5-d]pyrimidine-2,7-diamine] | 698
16 | CC(C)OCCNCc1ccc(Nc2nc3ncnc(Nc4ccc(F)c(Cl)c4)c3s2)cc1 [Cpd 53, N^7-(3-chloro-4-fluoro-phenyl)-N^2-{-4-[(2-isopropoxy-ethylamino)-methyl]-phenyl}-thiazolo[4,5-d]pyrimidine-2,7-diamine] | 7.73

Row | Compound | IC50 [nM]
17 | C#Cc1cccc(Nc2ncnc3nc(Nc4ccc(CN5CCC[C@@H]5CO)cc4)sc23)c1 [Cpd 54, (2R)-(1-{4-[7-(3-ethynyl-phenylamino)-thiazolo[4,5-d]pyrimidin-2-ylamino]-benzyl}-pyrrolidin-2-yl)-methanol] | 10
18 | C#Cc1cccc(Nc2ncnc3nc(Nc4ccc(CNCCOC(C)C)cc4)sc23)c1 [Cpd 55, N^7-(3-ethynyl-phenyl)-N^2-{4-[(2-isopropoxy-ethylamino)-methyl]-phenyl}-thiazolo[4,5-d]pyrimidine-2,7-diamine] | 8.25
19 | COc1ccc(Cl)cc1Nc1ncnc2nc(Nc3ccc(CN4CCOCC4)cc3)sc12 [Cpd 56, N^7-(5-chloro-2-methoxy-phenyl)-N^2-(4-morpholin-4-ylmethyl-phenyl)-thiazolo[4,5-d]pyrimidine-2,7-diamine] | 36
20 | Clc1cccc(Nc2ncnc3nc(Nc4ccc(CN5CCOCC5)cc4)sc23)c1 [Cpd 57, N^7-(3-chloro-phenyl)-N^2-(4-morpholin-4-ylmethyl-phenyl)-thiazolo[4,5-d]pyrimidine-2,7-diamine] | 7
21 | C#Cc1cccc(Nc2ncnc3nc(Nc4ccc(S(=O)(=O)NCCO)cc4)sc23)c1 [Cpd 58, 4-[7-(3-ethynyl-phenylamino)-thiazolo[4,5-d]pyrimidin-2-ylamino]-N-(2-hydroxy-ethyl)-benzenesulfonamide] | 6.5
22 | CN(Cc1ccc(Nc2nc3ncnc(Nc4ccc(F)c(Cl)c4)c3s2)cc1)C[C@H]1CCCO1 [Cpd 59, N^7-(3-chloro-4-fluoro-phenyl)-N^2-(4-{[methyl-(2R)-(tetrahydro-furan-2-ylmethyl)-amino]-methyl}-phenyl)-thiazolo[4,5-d]pyrimidine-2,7-diamine] | 11
23 | CN(Cc1ccc(Nc2nc3ncnc(Nc4ccc(F)c(Cl)c4)c3s2)cc1)C[C@@H]1CCCO1 [Cpd 60, N^7-(3-chloro-4-fluoro-phenyl)-N^2-(4-{[methyl-(2S)-(tetrahydro-furan-2-ylmethyl)-amino]-methyl}-phenyl)-thiazolo[4,5-d]pyrimidine-2,7-diamine] | 23.9
24 | C#Cc1cccc(Nc2ncnc3nc(Nc4ccc(CN(CC(C)O)CC(C)O)cc4)sc23)c1 (stereo not shown) [Cpd 61, 1-[{4-[7-(3-ethynyl-phenylamino)-thiazolo[4,5-d]pyrimidin-2-ylamino]-benzyl}-(2-hydroxy-propyl)-amino]-propan-2-ol] | 27.5
25 | C#Cc1cccc(Nc2ncnc3nc(Nc4ccc(CNCC5COC(C)(C)O5)cc4)sc23)c1 (stereo not shown) [Cpd 62, N^2-(4-{[(2,2-dimethyl-[1,3]dioxolan-4-ylmethyl)-amino]-methyl}-phenyl)-N^7-(3-ethynyl-phenyl)-thiazolo[4,5-d]pyrimidine-2,7-diamine] | 6.95
26 | C#Cc1cccc(Nc2ncnc3nc(Nc4ccc(CN(C)C5CCOCC5)cc4)sc23)c1 [Cpd 63] | 10.7
27 | O=[N+]([O-])c1cc(Nc2ncnc3nc(Nc4ccc(CN5CCOCC5)cc4)sc23)ccc1F [Cpd 65, N^7-(4-fluoro-3-nitro-phenyl)-N^2-(4-morpholin-4-ylmethyl-phenyl)-thiazolo[4,5-d]pyrimidine-2,7-diamine] | 43.4
28 | Fc1ccc(Nc2ncnc3nc(Nc4ccc(CNC[C@H]5CCCO5)cc4)sc23)cc1Cl [Cpd 67, N^7-(3-chloro-4-fluoro-phenyl)-N^2-(4-{[(2R)-(tetrahydro-furan-2-ylmethyl)-amino]-methyl}-phenyl)-thiazolo[4,5-d]pyrimidine-2,7-diamine] | 3.7
29 | C#Cc1cccc(Nc2ncnc3nc(Nc4ccc(OC)nc4)sc23)c1 [Cpd 69, N^7-(3-ethynyl-phenyl)-N^2-(6-methoxy-pyridin-3-yl)-thiazolo[4,5-d]pyrinidine-2,7-diamine] | 28.6
30 | COc1ccc(Nc2nc3ncnc(Nc4ccc(F)c(Cl)c4)c3s2)cn1 [Cpd 70, N^7-(3-chloro-4-fluoro-phenyl)-N^2-(6-methoxy-pyridin-3-yl)-thiazolo[4,5-d]pyrimidine-2,7-diamnine] | 19.6
31 | Nc1ccc(Nc2nc3ncnc(Nc4ccc(F)c(Cl)c4)c3s2)cn1 [Cpd 71, N^2-(6-amino-pyridin-3-yl)-N^7-(3-chloro-4-fluoro-phenyl)-thiazolo[4,5-d]pyrimidine-2,7-diamine] | 44
